Consider 20 molecules from US20230002346A1, “NEW COMPOUNDS AND METHODS” (BenevolentAl Bio Limited, priority 2019, published 2023).

As usually defined, the IC50 is the midpoint of a concentration-inhibition curve. Lower therefore signals greater potency in that assay. Usually solubility stands for the concentration that dissolves in the medium under given conditions. A high value points to much dissolved substance.

Values after ≈ are worked out from the molar mass of the structure shown.

T1 sequence (Q12809 whole entry): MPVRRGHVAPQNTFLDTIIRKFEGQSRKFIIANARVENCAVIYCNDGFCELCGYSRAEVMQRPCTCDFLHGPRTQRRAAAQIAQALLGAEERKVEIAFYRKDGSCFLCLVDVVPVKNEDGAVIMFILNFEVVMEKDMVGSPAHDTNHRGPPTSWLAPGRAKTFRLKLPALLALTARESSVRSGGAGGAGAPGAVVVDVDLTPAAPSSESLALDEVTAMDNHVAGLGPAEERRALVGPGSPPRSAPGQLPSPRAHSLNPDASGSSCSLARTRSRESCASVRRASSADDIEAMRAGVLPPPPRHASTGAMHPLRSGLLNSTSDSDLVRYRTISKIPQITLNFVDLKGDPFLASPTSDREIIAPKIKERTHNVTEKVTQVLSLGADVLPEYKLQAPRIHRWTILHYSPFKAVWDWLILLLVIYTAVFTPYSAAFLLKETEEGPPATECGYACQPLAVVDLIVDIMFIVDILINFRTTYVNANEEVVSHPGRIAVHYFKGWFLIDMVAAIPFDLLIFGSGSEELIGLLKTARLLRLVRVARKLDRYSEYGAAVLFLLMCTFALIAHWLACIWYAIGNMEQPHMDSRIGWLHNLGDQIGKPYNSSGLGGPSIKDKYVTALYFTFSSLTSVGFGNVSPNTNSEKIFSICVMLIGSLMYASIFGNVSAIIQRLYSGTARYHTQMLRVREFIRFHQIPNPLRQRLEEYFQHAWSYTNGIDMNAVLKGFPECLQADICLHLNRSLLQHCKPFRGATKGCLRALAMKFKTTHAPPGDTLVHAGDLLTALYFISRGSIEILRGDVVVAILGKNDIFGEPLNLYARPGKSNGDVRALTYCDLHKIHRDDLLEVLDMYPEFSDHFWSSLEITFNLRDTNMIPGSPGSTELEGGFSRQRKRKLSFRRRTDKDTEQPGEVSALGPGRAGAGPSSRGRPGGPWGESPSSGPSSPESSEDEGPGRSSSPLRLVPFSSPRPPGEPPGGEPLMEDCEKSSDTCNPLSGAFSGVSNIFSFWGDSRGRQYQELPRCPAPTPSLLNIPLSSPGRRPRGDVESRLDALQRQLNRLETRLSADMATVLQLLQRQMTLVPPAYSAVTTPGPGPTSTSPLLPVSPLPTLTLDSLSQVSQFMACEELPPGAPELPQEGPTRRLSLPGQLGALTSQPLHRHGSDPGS

One data set concerns the target T1, hERG channel (Homo sapiens, UniProt Q12809).
T1 construct: expressed in transfected cells
The data set can be described thus: hERG assay (QPatch automated patch clamp, CHO cells). In kind it is cell-based. Particulars: CHO cells expressing hERG, whole-cell patch clamp, 0.003 μM to 10 μM. An excerpt:
The human ether-a-go-go related gene (hERG) potassium channel (Kv11.1) contributes to human cardiac action potential repolarisation. Inhibition of hERG channels can prolong the human cardiac action potential, resulting in QTc prolongation and potentially lethal arrhythmias (e.g. Torsade de Pointes).
Test samples were screened against the hERG channel on a QPatch 48 gigaseal automated patch clamp platform, using a Chinese Hamster Ovary (CHO) cell line stably expressing the human ether-á-go-go related gene, which encodes the hERG channel. All recordings were made in the conventional whole-cell configuration and performed at RT ([…]) using standard single hole chips (Rchip 1.5-4M0). Series resistance (4-15Mc) was compensated by >80%. Currents were elicited from a holding potential of −90 mV using the industry standard “^+40/−40” voltage protocol, which was applied at a stimulus frequency of 0.1 Hz. On achieving the whole-cell configuration, vehicle (0.1% DMSO v/v in external recording solution) was applied to each cell in two bolus additions with a 2 min recording period between each addition. Following the vehicle period, eight increasing concentrations of test sample were applied from 0.003 μM to 10 μM as a single bolus addition per test concentration, and the effects on hERG tail current amplitude measured during the 2 min recording period. Each eight-point concentration-response curve was constructed using cumulative single sample additions of each concentration to the same cell. The positive control used in this study was verapamil hydrochloride (Tocris, Cat #0654, Batch #5A/61673) and prepared to a stock concentration of 10 mM in 100% DMSO and kept as frozen aliquots.
Data analysis: All cells passing the QC parameters (i.e. >200 pA outward current, membrane resistance and rundown) are selected as ‘passed QC’ using the QPatch software, which then calculates the mean peak current for the last three sweeps at the end of each concentration application period from the cursor positions defined. Percent inhibition is calculated for each test concentration application period as the reduction in mean cursor value (peak current or charge) relative to the cursor value measured at the end of the control (i.e. vehicle) period. The percent inhibition values from each cell are used to construct concentration-response curves employing a four parametric logistic fit with 0 and 100% inhibition levels fixed at very low and very high concentrations, respectively, and a free Hill slope factor. The IC50 (50% inhibitory concentration) and Hill coefficient are then determined, but only data from cells with Hill slopes within 0.5>nH<2.0 are included. The IC50 data reported below represents the mean (and S.D.) of at least three separate cells (N≥3). […] Compounds of the invention show reduced hERG inhibitory activity compared to the reference examples.
In turn, `Cc1c(-n2cc(C(=O)Nc3ccc(OC(F)(F)Cl)cc3)ccc2=O)cnn1C` [Example 18, N-[4-[Chloro(difluoro)methoxy]phenyl]-1-(1,5-dimethylpyrazol-4-yl)-6-oxo-pyridine-3-carboxamide] registered an IC50 of more than 10 µM.

In turn, `Cn1cc(C(=O)Nc2ccc(OC(F)(F)F)cc2)ccc1=O` [Example 26, 1-Methyl-6-oxo-N-[4-(trifluoromethoxy)phenyl]pyridine-3-carboxamide] registered an IC50 of more than 10 µM.

For `Cn1cc(C(=O)Nc2ccc(OC(F)(F)Cl)cc2)cc(-c2cncnc2)c1=O` [Example 82, N-[4-(Chlorodifluoromethoxy)phenyl]-1-methyl-6-oxo-5-(pyrimidin-5-yl)-1,6-dihydropyridine-3-carboxamide], the IC50 was more than 10 µM.

With `O=C(Nc1ccc(OC(F)(F)Cl)cc1)c1cccc(-c2cncnc2)c1` [Ref. ex. 2, N-[4-[Chloro(difluoro)methoxy]phenyl]-3-pyrimidin-5-ylbenzamide, reference compound], inhibition was half-maximal at 1.9 µM (IC50).

The molecule `Cc1ccc(C(=O)Nc2ccc(OC(F)(F)F)cc2)cc1-c1cccnc1` [Ref. ex. 3, 4-Methyl-3-(3-pyridyl)-N-[4-(trifluoromethoxy)phenyl]benzamide, reference compound] displayed an IC50 of 2.5 µM.

Test system in another data set: not listed separately
In words: Kinetic aqueous solubility assay. Conditions: aqueous buffer, kinetic from dmso stock, 0.05M potassium phosphate buffer pH 7.4, 250 μM spike, RT. In kind it is physicochemical. How it is done: Using a 10 mM stock solution of test compound in 100% DMSO, test compounds were spiked into 0.05M potassium phosphate buffer (pH 7.4) at a final concentration of 250 μM. Samples in buffer (n=2 aqueous samples, in 96-well plates) were allowed to equilibrate at RT on an orbital shaker for 30 min (300 rpm) to induce precipitation of test compounds. The appearance of each sample was determined by visual examination and noted (clear, cloudy, precipitate observed etc.). […] The concentration of compound in phosphate buffer filtrate was determined by comparing the UV absorbance peak area of each replicate against that of the calibration standards. […] Compounds of the invention have much improved solubility compared to the reference examples.
The molecule `O=C(Nc1ccc(OC(F)(F)F)cc1)c1ccc(=O)n(CCN2CCOCC2)c1` [Example 2, 1-(2-Morpholinoethyl)-6-oxo-N-[4-(trifluoromethoxy)phenyl]pyridine-3-carboxamide] gave a solubility at 30 min of 215 µM (≈ 88.4 µg/mL).

As to `Cn1ccc(-n2cc(C(=O)Nc3ccc(OC(F)(F)Cl)cc3)ccc2=O)n1` [Example 3, N-[4-(Chlorodifluoromethoxy)phenyl]-1-(1-methyl-1H-pyrazol-3-yl)-6-oxo-1,6-dihydropyridine-3-carboxamide], the solubility at 30 min worked out at 140 µM (≈ 55.3 µg/mL).

Consider `O=C(Nc1ccc(OC(F)(F)Cl)cc1)c1ccc(=O)n([C@H]2CCOC2)c1` [Example 4, N-[4-[Chloro(difluoro)methoxy]phenyl]-6-oxo-1-[(3S)-tetrahydrofuran-3-yl]pyridine-3-carboxamide], for which the solubility at 30 min was 180 µM (≈ 69.3 µg/mL).

For `COc1ncc(-n2cc(C(=O)Nc3ccc(OC(F)(F)Cl)cc3)ccc2=O)cn1` [Example 12, N-[4-[Chloro(difluoro)methoxy]phenyl]-1-(2-methoxypyrimidin-5-yl)-6-oxo-pyridine-3-carboxamide], the solubility at 30 min amounted to 140 µM (≈ 59.2 µg/mL).

`CN1CC[C@@H](n2cc(C(=O)Nc3ccc(OC(F)(F)Cl)cc3)ccc2=O)C1` [Example 16, N-[4-[Chloro(difluoro)methoxy]phenyl]-1-[(3R)-1-methylpyrrolidin-3-yl]-6-oxo-pyridine-3-carboxamide] returned a solubility at 30 min of 180 µM (≈ 71.6 µg/mL).

As for `Cc1c(-n2cc(C(=O)Nc3ccc(OC(F)(F)Cl)cc3)ccc2=O)cnn1C` [Example 18, N-[4-[Chloro(difluoro)methoxy]phenyl]-1-(1,5-dimethylpyrazol-4-yl)-6-oxo-pyridine-3-carboxamide], the solubility at 30 min amounted to 200 µM (≈ 81.8 µg/mL).

For the molecule `N#Cc1cccc(-n2cc(C(=O)Nc3ccc(OC(F)(F)Cl)cc3)ccc2=O)c1` [Example 20, N-[4-(Chlorodifluoromethoxy)phenyl]-1-(3-cyanophenyl)-6-oxo-1,6-dihydropyridine-3-carboxamide], the solubility at 30 min was 100 µM (≈ 41.6 µg/mL).

`Cn1nccc1-n1cc(C(=O)Nc2ccc(OC(F)(F)Cl)cc2)ccc1=O` [Example 25, N-[4-(Chlorodifluoromethoxy)phenyl]-1-(1-methyl-1H-pyrazol-5-yl)-6-oxo-1,6-dihydropyridine-3-carboxamide] came in with a solubility at 30 min of 170 µM (≈ 67.1 µg/mL).

`O=C(Nc1ccc(OC(F)(F)Cl)cc1)c1ccc(=O)n(-c2cnn(C(F)F)c2)c1` [Example 27, N-[4-(Chlorodifluoromethoxy)phenyl]-1-[1-(difluoromethyl)-1H-pyrazol-4-yl]-6-oxo-1,6-dihydropyridine-3-carboxamide] gave a solubility at 30 min of 100 µM (≈ 43.1 µg/mL).

`Cn1ncc(-n2cc(C(=O)Nc3ccc(OC(F)(F)Cl)cc3)ccc2=O)c1Cl` [Example 30, 1-(5-Chloro-1-methyl-1H-pyrazol-4-yl)-N-[4-(chlorodifluoromethoxy)phenyl]-6-oxo-1,6-dihydropyridine-3-carboxamide] came in with a solubility at 30 min of 140 µM (≈ 60.1 µg/mL).

As to `N#Cc1cncc(-n2cc(C(=O)Nc3ccc(OC(F)(F)Cl)cc3)ccc2=O)c1` [Example 55, N-[4-[Chloro(difluoro)methoxy]phenyl]-1-(5-cyano-3-pyridyl)-6-oxo-pyridine-3-carboxamide], the solubility at 30 min is 150 µM (≈ 62.5 µg/mL).

Regarding `Cc1cncc(-n2cc(C(=O)Nc3ccc(OC(F)(F)Cl)cc3)ccc2=O)c1` [Example 57, N-[4-[Chloro(difluoro)methoxy]phenyl]-1-(5-methyl-3-pyridyl)-6-oxo-pyridine-3-carboxamide], the solubility at 30 min came out at 170 µM (≈ 69 µg/mL).

For `COc1cc(C(=O)Nc2ccc(OC(F)(F)Cl)cc2)cn(-c2cncnc2)c1=O` [Example 58, N-[4-[Chloro(difluoro)methoxy]phenyl]-5-methoxy-6-oxo-1-pyrimidin-5-yl-pyridine-3-carboxamide], the solubility at 30 min was 180 µM (≈ 76.1 µg/mL).

In turn, `Cc1cc(C(=O)Nc2ccc(OC(F)(F)Cl)cc2)cn(-c2cncnc2)c1=O` [Example 59, N-[4-[Chloro(difluoro)methoxy]phenyl]-5-methyl-6-oxo-1-pyrimidin-5-yl-pyridine-3-carboxamide] displayed a solubility at 30 min of 190 µM (≈ 77.3 µg/mL).

For the molecule `O=C(Nc1ccc(OC(F)(F)Cl)cc1)c1cc(N2CCOCC2)c(=O)n(-c2cncnc2)c1` [Example 60, N-[4-(Chlorodifluoromethoxy)phenyl]-5-(morpholin-4-yl)-6-oxo-1-(pyrimidin-5-yl)-1,6-dihydropyridine-3-carboxamide], the solubility at 30 min was found to be 210 µM (≈ 100 µg/mL).

The molecule `Cn1cc2ncc(-n3cc(C(=O)Nc4ccc(OC(F)(F)Cl)cc4)ccc3=O)cc2n1` [Example 71, N-[4-(Chlorodifluoromethoxy)phenyl]-1-{2-methyl-2H-pyrazolo[4,3-b]pyridin-6-yl}-6-oxo-1,6-dihydropyridine-3-carboxamide] registered a solubility at 30 min of 110 µM (≈ 49 µg/mL).

The molecule `Cn1cc(C(=O)Nc2ccc(OC(F)(F)Cl)cc2)cc(-c2cncnc2)c1=O` [Example 82, N-[4-(Chlorodifluoromethoxy)phenyl]-1-methyl-6-oxo-5-(pyrimidin-5-yl)-1,6-dihydropyridine-3-carboxamide] had a solubility at 30 min of 170 µM (≈ 69.2 µg/mL).

Molecule `O=C(Nc1ccc(OC(F)(F)Cl)cc1)c1cccc(-c2cncnc2)c1` [Ref. ex. 2, N-[4-[Chloro(difluoro)methoxy]phenyl]-3-pyrimidin-5-ylbenzamide, reference compound] yielded a solubility at 30 min of 9 µM (≈ 3.38 µg/mL).

`Cc1ccc(C(=O)Nc2ccc(OC(F)(F)F)cc2)cc1-c1cccnc1` [Ref. ex. 3, 4-Methyl-3-(3-pyridyl)-N-[4-(trifluoromethoxy)phenyl]benzamide, reference compound] yielded a solubility at 30 min of 56 µM (≈ 20.9 µg/mL).
